Data taken from US8193372B2, “Phosphothiophene and phosphothiazole HCV polymerase inhibitors” (Idenix Pharmaceuticals, Inc., priority 2009, dated 2012).

What was measured:
[1] = tested on: HCV Con1 subgenomic replicon of genotype 1b (GS4.1 cells); test: microbe, parasite or virus in culture; assay type: cell-based, HCV genotype 1b; details: Hepatitis C virus; for EC50: 72 h
[2] = Cytotoxicity (CC50) reported with the HCV replicon ELISA assay; details: human
[3] = in vitro; details: human

| Structure (SMILES) | IC50 [1] [µM] | EC50 [1] [µM] | CC50 at 72 hr [2] [µM] | CC50 [3] [µM] |
| --- | --- | --- | --- | --- |
| Cc1ccc(P(=O)(O)Nc2cc(-c3ccc(F)cc3)sc2C(=O)O)c(C)c1 [Compound 1] | 0.1 to 8.3 | > 8.3 | > 8.3 | – |
| Cc1ccc(P(=O)(Nc2cc(-c3ccc(Cl)cc3)sc2C(=O)O)OCCC(C)C)c(C)c1 (stereo not drawn) [Compound 81] | 0.1 to 8.3 | 0.1 to 8.3 | > 8.3 | – |
| Cc1ccc(P(=O)(Nc2cc(-c3ccc(Cl)cc3)sc2C(=O)O)OCC2CCOCC2)c(C)c1 (stereo not drawn) [Compound 84] | 0.1 to 8.3 | 0.1 to 8.3 | > 8.3 | – |
| COCCOP(=O)(Nc1cc(-c2ccc(Cl)cc2)sc1C(=O)O)c1ccc(C)cc1C (stereo not drawn) [Compound 85] | 0.1 to 8.3 | 0.1 to 8.3 | > 8.3 | – |
| Cc1ccc(P(=O)(Nc2cc(-c3ccc(Cl)cc3)sc2C(=O)O)OCC(C)C)c(C)c1 (stereo not drawn) [Compound 86] | 0.1 to 8.3 | 0.1 to 8.3 | > 8.3 | – |
| Cc1ccc(P(=O)(Nc2cc(-c3ccc(Cl)cc3)sc2C(=O)O)OCCC(C)(C)C)c(C)c1 (stereo not drawn) [Compound 90] | 0.1 to 8.3 | 0.1 to 8.3 | > 8.3 | – |
| Cc1ccc(P(=O)(Nc2cc(-c3ccc(Cl)cc3)sc2C(=O)O)OCC2CC2)c(C)c1 (stereo not drawn) [Compound 91] | 0.1 to 8.3 | 0.1 to 8.3 | > 8.3 | – |
| Cc1ccc(P(=O)(Nc2cc(-c3ccc(Cl)cc3)sc2C(=O)O)OCCc2ccc(F)cc2)c(C)c1 (stereo not drawn) [Compound 92] | 0.1 to 8.3 | 0.1 to 8.3 | > 8.3 | – |
| Cc1ccc(P(=O)(Nc2cc(-c3ccc(Cl)cc3)sc2C(=O)O)OCc2cc3ccccc3o2)c(C)c1 (stereo not drawn) [Compound 93] | 0.1 to 8.3 | 0.1 to 8.3 | > 8.3 | – |
| Cc1ccc(P(=O)(Nc2cc(-c3ccc(Cl)cc3)sc2C(=O)O)OC2CCOC2)c(C)c1 (stereo not drawn) [Compound 94] | 0.1 to 8.3 | 0.1 to 8.3 | > 8.3 | – |
| COC1CCC(OP(=O)(Nc2cc(-c3ccc(Cl)cc3)sc2C(=O)O)c2ccc(C)cc2C)CC1 (stereo not drawn) [Compound 95] | 0.1 to 8.3 | 0.1 to 8.3 | > 8.3 | – |
| Cc1ccc(P(=O)(Nc2cc(-c3ccc(Cl)cc3)sc2C(=O)O)OCc2ccccc2)c(C)c1 (stereo not drawn) [Compound 107] | – | 0.1 to 8.3 | > 8.3 | – |
| CCOCCOP(=O)(Nc1cc(-c2ccc(Cl)cc2)sc1C(=O)O)c1ccc(C)cc1C (stereo not drawn) [Compound 130] | 0.1 to 8.3 | – | > 8.3 | – |
| COP(=O)(Nc1cc(-c2ccc(C#Cc3cscn3)cc2)sc1C(=O)O)c1ccc(C)cc1C (stereo not drawn) [Compound 139] | < 0.1 | < 0.1 | – | > 8.3 |
| COC(=O)c1sc(-c2ccc(Cl)cc2)cc1NP(=O)(OC)c1ccc(C)cc1C (stereo not drawn) [Compound 140] | – | > 8.3 | – | > 8.3 |
| COP(=O)(Nc1cc(-c2ccc(Br)cc2)sc1C(=O)O)c1ccc(C)cc1C (stereo not drawn) [Compound 141] | < 0.1 | 0.1 to 8.3 | – | > 8.3 |
| COC(=O)c1sc(-c2ccc(-c3cc4ncccn4n3)cc2)cc1NP(=O)(OC)c1ccc(C)cc1C (stereo not drawn) [Compound 142] | – | 0.1 to 8.3 | – | > 8.3 |
| COP(=O)(Nc1cc(-c2ccc(C#Cc3ccccn3)cc2)sc1C(=O)O)c1ccc(C)cc1C (stereo not drawn) [Compound 143] | < 0.1 | < 0.1 | – | > 8.3 |
| COC(=O)c1sc(-c2ccc(I)cc2)cc1NP(=O)(OC)c1ccc(C)cc1C (stereo not drawn) [Compound 144] | – | > 8.3 | – | > 8.3 |
| COP(=O)(c1ccc(C)cc1C)N(C)c1cc(-c2ccc(-c3cc4ncccc4o3)cc2)sc1C(=O)O (stereo not drawn) [Compound 145] | < 0.1 | < 0.1 | – | > 8.3 |
| COP(=O)(Nc1cc(-c2ccc(C#Cc3ccccc3)cc2)sc1C(=O)O)c1ccc(C)cc1C (stereo not drawn) [Compound 146] | < 0.1 | < 0.1 | – | > 8.3 |

| Structure (SMILES) | IC50 [1] [µM] | EC50 [1] [µM] | CC50 at 72 hr [2] [µM] | CC50 [3] [µM] |
| --- | --- | --- | --- | --- |
| COP(=O)(Nc1cc(-c2ccc(-c3ccc(Cl)c(Cl)c3)cc2)sc1C(=O)O)c1ccc(C)cc1C (stereo not drawn) [Compound 147] | 0.1 to 8.3 | 0.1 to 8.3 | – | > 8.3 |
| COC(=O)c1sc(-c2ccc(Br)cc2)cc1NP(=O)(OC)c1ccc(C)cc1C (stereo not drawn) [Compound 148] | > 8.3 | > 8.3 | – | > 8.3 |
| COc1ccc(-c2cc(NP(=O)(OC)c3ccc(C)cc3C)c(C(=O)O)s2)cc1 (stereo not drawn) [Compound 149] | < 0.1 | 0.1 to 8.3 | – | > 8.3 |
| CCOP(=O)(Nc1cc(-c2ccc(-c3cc4ncccc4o3)cc2)sc1C(=O)O)c1ccc(Cl)cc1Cl (stereo not drawn) [Compound 150] | < 0.1 | < 0.1 | – | > 8.3 |
| COP(=O)(Nc1cc(-c2ccc(Cl)cc2Cl)sc1C(=O)O)c1ccc(C)cc1C (stereo not drawn) [Compound 151] | 0.1 to 8.3 | > 8.3 | – | > 8.3 |
| COP(=O)(Nc1cc(-c2ccc(CC(C)C)cc2)sc1C(=O)O)c1ccc(C)cc1C (stereo not drawn) [Compound 154] | 0.1 to 8.3 | > 8.3 | – | > 8.3 |
| CCOP(=O)(Nc1cc(-c2cc3ccccc3s2)sc1C(=O)O)c1ccc(Cl)cc1Cl (stereo not drawn) [Compound 157] | 0.1 to 8.3 | > 8.3 | – | > 8.3 |
| CCOP(=O)(Nc1cc(-c2ccc(OCc3ccccc3)cc2)sc1C(=O)O)c1ccc(Cl)cc1Cl (stereo not drawn) [Compound 158] | 0.1 to 8.3 | 0.1 to 8.3 | – | > 8.3 |
| COP(=O)(Nc1cc(-c2ccccc2)sc1C(=O)O)c1ccc(Cl)cc1Cl (stereo not drawn) [Compound 159] | 0.1 to 8.3 | > 8.3 | – | > 8.3 |
| CCOP(=O)(Nc1cc(-c2ccc(Cl)c(Cl)c2)sc1C(=O)O)c1ccc(Cl)cc1Cl (stereo not drawn) [Compound 161] | 0.1 to 8.3 | > 8.3 | – | > 8.3 |
| CCOP(=O)(Nc1cc(-c2ccc(Cl)cc2)sc1C(=O)O)c1ccc(Cl)cc1Cl (stereo not drawn) [Compound 163] | 0.1 to 8.3 | 0.1 to 8.3 | – | > 8.3 |
| CCOP(=O)(Nc1cc(-c2ccc(F)cc2)sc1C(=O)OC)c1ccc(Cl)cc1Cl (stereo not drawn) [Compound 170] | – | > 8.3 | – | > 8.3 |
| COC(=O)c1sc(-c2ccc(F)cc2)cc1NP(=O)(OC)c1ccc(C)cc1C (stereo not drawn) [Compound 172] | > 8.3 | > 8.3 | – | > 8.3 |
| CCOP(=O)(Nc1cc(-c2ccc(F)cc2)sc1C(=O)OC)c1ccc(C)cc1C (stereo not drawn) [Compound 173] | > 8.3 | > 8.3 | – | > 8.3 |
| COP(=O)(Cc1cc(-c2ccc(-c3cc4ncccc4o3)cc2)sc1C(=O)O)c1ccc(C)cc1C (stereo not drawn) [Compound 174] | < 0.1 | < 0.1 | – | > 8.3 |
| CCOP(=O)(Cc1cc(-c2ccc(-c3cc4ncccn4n3)cc2)sc1C(=O)O)c1ccc(C)cc1C (stereo not drawn) [Compound 175] | < 0.1 | 0.1 to 8.3 | – | > 8.3 |
| COP(=O)(Cc1cc(-c2ccc(F)cc2)sc1C(=O)O)c1ccc(C)cc1C (stereo not drawn) [Compound 176] | 0.1 to 8.3 | > 8.3 | – | > 8.3 |
| COP(=O)(Cc1cc(-c2ccccc2)sc1C(=O)O)c1ccc(C)cc1C (stereo not drawn) [Compound 177] | 0.1 to 8.3 | > 8.3 | – | > 8.3 |
| CCOP(=O)(Cc1cc(-c2ccccc2)sc1C(=O)O)c1ccc(C)cc1C (stereo not drawn) [Compound 178] | 0.1 to 8.3 | > 8.3 | – | > 8.3 |
| CCOP(=O)(Cc1cc(-c2ccc(F)cc2)sc1C(=O)O)c1ccc(C)cc1C (stereo not drawn) [Compound 179] | 0.1 to 8.3 | > 8.3 | – | > 8.3 |
